Assay results reported in patent US8686165B2, “Process for preparation of taxane derivatives” (Emcure Pharmaceuticals Limited, priority 2009, dated 2014).
Counter-ions that a name gives are not always drawn. Like-named read-outs stand apart in the source and are kept apart here.

How the values were obtained:
[1] = Comparative stability profile of docetaxel in solution at 35° C. with and without aluminum sulphate; assay type: physicochemical; conditions: for Epi-Docetaxel / Docetaxel: solution at 35° C., trihydrate; for Epi-Docetaxel: 360 min (6 hours); for Docetaxel: 360 min
Method: The docetaxel solution prepared according to present invention had 0.19% of epi-docetaxel after 6 hours.

[2] = as above; assay type: physicochemical
[3] = assay type: physicochemical; conditions: 25 ± 2° C./60 ± 5% RH

| SMILES | Epi-Docetaxel [1] | Docetaxel [1] | Docetaxel ([2]; 30 min, trihydrate) | Epi-Docetaxel ([2]; 30 min, trihydrate) | Docetaxel ([2]; 60 min, trihydrate) | Epi-Docetaxel ([2]; 60 min, trihydrate) | Docetaxel ([2]; Initial) | Epi-Docetaxel ([2]; Initial) | 7-Epi-docetaxel ([3]; 1 Month) | 10-Deacetyl baccatin III ([3]; 1 Month) | Any individual unspecified unidentified impurity ([3]; 1 Month) | further results |
| --- | --- | --- | --- | --- | --- | --- | --- | --- | --- | --- | --- | --- |
| CC(=O)O[C@@]12CO[C@@H]1C[C@H](O)[C@@]1(C)C(=O)[C@H](O)C3=C(C)[C@@H](OC(=O)[C@H](O)[C@@H](NC(=O)OC(C)(C)C)c4ccccc4)C[C@@](O)([C@@H](OC(=O)c4ccccc4)[C@H]21)C3(C)C.O.O.O [Example 6, Docetaxel trihydrate] | 0.86% | 98.81% | 99.51% | 0.23% | 98.95% | 0.34% | 99.68% | 0.11% |  |  |  | Epi-Docetaxel ([2]; 360 min (6 hours), listed as docetaxel solution prepared without using aluminum sulfate, trihydrate): 0.86% |
| CC(=O)O[C@@]12CO[C@@H]1C[C@H](O)[C@@]1(C)C(=O)[C@H](O)C3=C(C)[C@@H](OC(=O)[C@H](O)[C@@H](NC(=O)OC(C)(C)C)c4ccccc4)C[C@@](O)([C@@H](OC(=O)c4ccccc4)[C@H]21)C3(C)C.O.O.O [Example 1, Docetaxel trihydrate] | 0.19% | 99.38% | 99.62% | 0.11% | 99.50% | 0.12% | 99.68% | 0.11% |  |  |  | reduction in formation of the epi-isomer degradation product ([1]; compared to a solution prepared without addition of a metal salt): almost a five-fold reduction; Epi-Docetaxel ([2]; 360 min (6 hours), listed as docetaxel solution prepared according to present invention, trihydrate): 0.19% |
| CC(=O)O[C@@]12CO[C@@H]1C[C@H](O)[C@@]1(C)C(=O)[C@H](O)C3=C(C)[C@@H](OC(=O)[C@H](O)[C@@H](NC(=O)OC(C)(C)C)c4ccccc4)C[C@@](O)([C@@H](OC(=O)c4ccccc4)[C@H]21)C3(C)C [Without potassium aluminum sulfate, docetaxel] |  |  |  |  |  |  |  |  | 0.18% | 0.07% | 0.07% | 7-Epi-10-deacetyl baccatin III ([3]; 1 Month): 0.08%; 7-Epi-10-oxo-10-deacetyl baccatin III ([3]; 1 Month): 0.01%; 7-Epi-10-oxo-Docetaxel ([3]; 1 Month): 0.01%; Total impurities ([3]; 1 Month): 0.58%; Total impurities ([3]; 1 Month, listed as docetaxel prepared without using potassium aluminum sulfate): 0.58% |
| CC(=O)O[C@@]12CO[C@@H]1C[C@H](O)[C@@]1(C)C(=O)[C@H](O)C3=C(C)[C@@H](OC(=O)[C@H](O)[C@@H](NC(=O)OC(C)(C)C)c4ccccc4)C[C@@](O)([C@@H](OC(=O)c4ccccc4)[C@H]21)C3(C)C.O.O.O [Example 2, Docetaxel trihydrate] |  |  |  |  |  |  |  |  | 0.022% | 0.01% | 0.076% | Total impurities ([3]; 1 Month, listed as docetaxel preparing by a process of the present invention, trihydrate): 0.27%; Total impurities ([3]; 1 Month, trihydrate): 0.27%; 7-Epi-docetaxel ([3]; 2 Month): 0.044%; 10-Deacetyl baccatin III ([3]; 2 Month): 0.01%; Any individual unspecified unidentified impurity ([3]; 2 Month): 0.083%; Total impurities ([3]; 2 Month): 0.27%; 7-Epi-docetaxel ([3]; Initial): 0.02%; Any individual unspecified unidentified impurity ([3]; Initial): 0.07%; Total impurities ([3]; Initial): 0.25% |
